In series [1] the target is T1, Tyrosinase (Agaricus bisporus, UniProt O42713).
T1 sequence (O42713 whole entry): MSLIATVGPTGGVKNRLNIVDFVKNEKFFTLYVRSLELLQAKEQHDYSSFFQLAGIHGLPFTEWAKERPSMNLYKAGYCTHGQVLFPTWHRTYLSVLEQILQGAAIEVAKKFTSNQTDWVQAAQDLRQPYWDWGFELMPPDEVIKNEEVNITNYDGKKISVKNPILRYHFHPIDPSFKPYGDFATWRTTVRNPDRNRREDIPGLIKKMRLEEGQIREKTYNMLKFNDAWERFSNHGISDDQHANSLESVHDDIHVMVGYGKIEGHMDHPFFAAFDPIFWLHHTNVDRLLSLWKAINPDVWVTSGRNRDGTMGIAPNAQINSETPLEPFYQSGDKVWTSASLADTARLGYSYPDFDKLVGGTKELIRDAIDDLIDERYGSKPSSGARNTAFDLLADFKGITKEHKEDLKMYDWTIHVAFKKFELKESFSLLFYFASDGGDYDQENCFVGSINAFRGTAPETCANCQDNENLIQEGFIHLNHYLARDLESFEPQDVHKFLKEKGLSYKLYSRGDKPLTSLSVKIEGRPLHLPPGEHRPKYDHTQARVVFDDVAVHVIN
Description: (§1) Inhibition of monophenolase activity of mushroom tyrosinase using L-tyrosine as substrate preincubated with substrate for 10 mins followed by protein addition measured after 15 mins by spectrophotometric analysis

The target of series [2] is T1, Tyrosinase. This is another data set of the same source.
Description: (§2) Inhibition of diphenolase activity of mushroom tyrosinase using L-DOPA as substrate preincubated with substrate for 10 mins followed by protein addition measured after 15 mins by spectrophotometric analysis
In series [3] the target is T1, Tyrosinase. The source holds these as a separate data set.
Series [4] has as its target T2, Tyrosinase (Agaricus bisporus) (UniProt O42713).
T2 sequence (whole entry): T1 sequence (O42713 whole entry)
Description: as §2

The target of series [5] is T2, Tyrosinase (Agaricus bisporus). The source holds these as a separate data set.
Description: as §1
The target of series [6] is T1, Tyrosinase. This is another data set of the same source.
Description: Competitive inhibition of diphenolase activity of mushroom tyrosinase using L-DOPA as substrate preincubated for 5 to 60 mins by Lineweaver-Burk and Dixon plot analysis
Series [7] has as its target T1, Tyrosinase. The series is described as follows: Time dependent inhibition of monophenolase activity of mushroom tyrosinase using L-tyrosine as substrate measured every 30 secs by Morrison and Walsh plot analysis. Particulars: read-out: Ki(app).
The test system of series [8] is B16. The series is described as follows: cells. Particulars: Mus musculus, B16, 72 h.
Description: Inhibition of alpha-MSH-stimulated melanin production in mouse B16 cells after 72 hrs by microplate reader analysis
A short description of a further series: in vitro. Particulars: mouse, B16 cells.
The subject of series [9] is B16. The experiment in a line: Potency index, ratio of kojic acid IC50 to compound IC50 for alpha-MSH-stimulated melanin production in mouse B16 cells. The class given is functional.

Each structure is given as a SMILES string.

Description for in vitro: Cytotoxicity against mouse B16 cells assessed as cell viability after 72 hrs by MTT assay

For the compound `C/C(=C\Cc1ccc(-c2coc3cc(O)cc(O)c3c2=O)cc1O)CCCC(C)(C)O`, the IC50 against Tyrosinase [1] and on Tyrosinase [2] was greater than 200 µM each time.

In the case of `CC(C)=CCC/C(C)=C/Cc1c(O)ccc(-c2coc3cc(O)cc(O)c3c2=O)c1O`, the IC50 (as a rule, the point on the concentration scale where inhibition reaches its midpoint) on Tyrosinase [1] is 92 µM; against Tyrosinase [2], greater than 200 µM. Moreover, the Ki at Tyrosinase [3] came to 49.7 µM. For the same compound, the inhibition entry in series [4] and in series [5] was “Dose-dependent effect” each time.

Consider `CC(C)=CCC/C(C)=C/COc1ccc(-c2coc3cc(O)cc(O)c3c2=O)cc1O`, for which the IC50 against Tyrosinase [1] and at Tyrosinase [2] was greater than 200 µM in each case.

Take `COc1cc(O)ccc1C1COc2cc3c(c(O)c2C1=O)C=CC(C)(C)O3` (stereo unspecified): the figures for the IC50 against Tyrosinase [1] and against Tyrosinase [2] were greater than 200 µM and 146 µM, respectively. Moreover, on Tyrosinase [6], the Ki was found to be 56.7 µM.

As for `CC(C)=CCC/C(C)=C/Cc1c(O)ccc(C2COc3cc(O)cc(O)c3C2=O)c1O` (stereo unspecified), the Ki came to 0.151 µM at Tyrosinase [7], 1.8 µM at Tyrosinase [3] and 76.4 µM at Tyrosinase [6]. Besides, the IC50 is 2.9 µM at Tyrosinase [1], 128 µM against Tyrosinase [2] and 42.3 µM in the series on B16 [8]. In addition, in the series “in vitro”, the CC50 (commonly the concentration at which the toxic effect on the cells reaches its halfway point) at 72 h was determined as 241 µM. Besides, the inhibition entry in series [4] and in series [5] was “Dose-dependent effect” throughout.

Turning to `CC(C)=CCC/C(C)=C/Cc1c(O)ccc(C2(O)COc3cc(O)cc(O)c3C2=O)c1O` (stereo unspecified), the IC50 against Tyrosinase [1] was found to be 18.4 µM; on Tyrosinase [2] it was 144 µM. For the same compound, the Ki on Tyrosinase [3] amounted to 7.5 µM; at Tyrosinase [6], 81.4 µM. The inhibition entry in series [4] and in series [5] was “Dose-dependent effect” each time.

In the case of `CC(C)=CCCCC1(C)C=Cc2cc(-c3coc4cc(O)cc(O)c4c3=O)ccc2O1` (stereo unspecified), the IC50 against Tyrosinase [1] and against Tyrosinase [2] was greater than 200 µM in each case.

As for `COc1c2c(cc3c1C[C@H](c1ccc(O)cc1O)CO3)OC(C)(C)C=C2`, the Ki at Tyrosinase [7] worked out at 0.00148 µM; at Tyrosinase [3], 0.019 µM; on Tyrosinase [6], 0.13 µM. Moreover, the “Ratio IC50” value in the series with B16 [9] amounted to 200. For the same compound, the IC50 on Tyrosinase [1] stood at 0.03 µM; at Tyrosinase [2], 0.5 µM; with B16 [8] it was 13 µM. In the series “in vitro”, this compound displayed a CC50 at 72 h of 104 µM. For the same compound, the inhibition entry in series [4] and in series [5] was “Dose-dependent effect” throughout.

For the compound `CC(C)=CCC/C(C)=C/Cc1cc(C2Oc3cc(O)c(C)c(O)c3C(=O)C2=O)ccc1O` (stereo unspecified), the IC50 against Tyrosinase [1] and against Tyrosinase [2] was greater than 200 µM throughout.

Turning to `CC(C)=CCC/C(C)=C/Cc1cc(C2CC(=O)c3c(cc(O)c(C)c3O)O2)ccc1O` (stereo unspecified), the IC50 on Tyrosinase [1] and against Tyrosinase [2] was greater than 200 µM throughout.

In the case of `CC(C)=CCC/C(C)=C/Cc1cc(-c2coc3cc(O)cc(O)c3c2=O)ccc1O`, the IC50 against Tyrosinase [1] and against Tyrosinase [2] was greater than 200 µM each time.

In the case of `CC(C)=CCc1c(O)ccc(C2COc3cc(O)c(CC=C(C)C)c(O)c3C2=O)c1O` (stereo unspecified), the IC50 against Tyrosinase [1] and at Tyrosinase [2] was greater than 200 µM throughout.

Turning to `COc1c(C2COc3cc(O)c(CC=C(C)C)c(O)c3C2=O)ccc(O)c1CC=C(C)C` (stereo unspecified), the IC50 against Tyrosinase [1] and at Tyrosinase [2] was greater than 200 µM throughout.

Turning to `COc1cc(C2COc3cc4c(c(OC)c3C2)C=CC(C)(C)O4)c(O)cc1O` (stereo unspecified), the IC50 against Tyrosinase [1] and against Tyrosinase [2] was greater than 200 µM in each case.
